The nature of data set [1]: Henry solubility constant Hcp at 293 K (mol/(m3 Pa)). The conditions noted are these: reference: De Maagd et al. (1998).
Data set [2] in a line: Henry solubility constant Hcp at 298.15 K (mol/(m3 Pa)).
The mark [3] stands for this setting: reference: Buttery et al. (1965).
Where [4] appears, read: reference: Jönsson et al. (1982).
Where [5] appears, read: reference: Scharlin and Battino (1994).
Setting [6] is: reference: Wen and Muccitelli (1979).
[7] abbreviates: reference: Xu and Kropscott (2014).
Where [8] appears, read: reference: Amoore and Buttery (1978).
Setting [9] is: reference: Miguel et al. (2000).
Setting [10] is: reference: Kutsuna et al. (2005).
Where [11] appears, read: reference: McFall et al. (2020).
The mark [12] stands for this setting: reference: Morrison and Johnstone (1954).
The mark [13] stands for this setting: reference: Jantunen and Bidleman (2006).
The mark [14] stands for this setting: reference: Sahsuvar et al. (2003).
Setting [15] is: reference: Copolovici and Niinemets (2005).

Several values for one entry are separate records, joined by “and”; a condition that tells them apart may be missing. Equal values may be shown once.

`Cc1ccc2ccccc2c1` [2-methylnaphthalene]: the “Henry solubility constant Hcp at 293 K” value in data set [1] worked out at 0.022. With `O=NO` [nitrous acid], the “Henry solubility constant Hcp” value is 0.47 in data set [2] (reference: Becker et al. (1996)); 0.47 in data set [2] (reference: Becker et al. (1998)); 0.37 in data set [2] (reference: Komiyama and Inoue (1978)); 0.48 in data set [2] (reference: Park and Lee (1988)). As for `CCCCCCCCC=O` [nonanal], the “Henry solubility constant Hcp” value in data set [2] (setting [3]) worked out at 0.071. In the case of `CCCCCCCCC` [nonane], the “Henry solubility constant Hcp” value was found to be 1.8e-06 in data set [2] (setting [4]) and 1.9e-06 in data set [2] (reference: Park et al. (1997)). In the case of `FC1(F)C(F)(F)C(F)(F)C1(F)F` [octafluorocyclobutane], the “Henry solubility constant Hcp” value stood at 1.2e-06 in data set [2] (reference: Park et al. (1982)), 1.3e-06 in data set [2] (setting [5]) and 1.2e-06 in data set [2] (setting [6]). Consider `FC(F)(F)C(F)(F)C(F)(F)F` [octafluoropropane], for which, in data set [2] (setting [6]), the “Henry solubility constant Hcp” value is 1.2e-07. With `C[Si](C)(C)O[Si](C)(C)O[Si](C)(C)C` [octamethyltrisiloxane], in data set [2] (setting [7]), the “Henry solubility constant Hcp” value was found to be 3.4e-07.

Regarding `CCCCCCCC=O` [octanal], the “Henry solubility constant Hcp” value in data set [2] (setting [3]) is 0.075. Regarding `CCCCCCCC` [octane], the “Henry solubility constant Hcp” value came out at 3.1e-06 in data set [2] (reference: Heidman et al. (1985)), 2.9e-06 in data set [2] (setting [4]) and 3.3e-06 in data set [2] (reference: Park et al. (1997)). `O=C1CCCCCCCCCCCCCCO1` [oxacyclohexadecan-2-one]: the “Henry solubility constant Hcp” value in data set [2] (setting [8]) was found to be 0.004. `C1CO1` [oxirane]: the “Henry solubility constant Hcp” value in data set [2] (reference: Conway et al. (1983)) stood at 0.058.

As for `O=CC(=O)O` [oxoethanoic acid], the “Henry solubility constant Hcp” value in data set [2] (reference: Ip et al. (2009)) turned out to be 110. Turning to `CC(Cl)CCC(Cl)C(Cl)CCC(Cl)CCl` (stereo not drawn) [pentachlorodecane isomers], the “Henry solubility constant Hcp” value in data set [2] (reference: Drouillard et al. (1998)) was 0.2 and 0.38. Take `O=C(O)C(F)(F)C(F)(F)C(F)(F)C(F)(F)C(F)(F)C(F)(F)C(F)(F)F` [pentadecafluorooctanoic acid]: the “Henry solubility constant Hcp” value in data set [2] (reference: Kutsuna and Hori (2008b)) stood at 0.049; in data set [2] (reference: Kwan (2001)) it was 2.8; in data set [2] (reference: Li et al. (2007)), 0.4.

In the case of `FC(F)C(F)(F)F` [pentafluoroethane], the “Henry solubility constant Hcp” value stood at 0.00031 in data set [2] (setting [9]) and 3.5e-05 in data set [2] (reference: Reichl (1995)). As to `CCCCC` [pentane], the “Henry solubility constant Hcp” value in data set [2] (reference: Jou and Mather (2000)) came to 8.7e-06; in data set [2] (setting [4]), 8.2e-06. As for `O=CCCCC=O` [pentanedial], in data set [2] (reference: Olson (1998)), the “Henry solubility constant Hcp” value came to 300. In the case of `O=C(O)CCCC(=O)O` [pentanedioic acid], in data set [2] (reference: Mentel et al. (2004)), the “Henry solubility constant Hcp” value turned out to be 1.9e+07.

For the compound `CCCCC(=O)O` [pentanoic acid], the “Henry solubility constant Hcp” value stood at 21 in data set [2] (reference: Khan and Brimblecombe (1992)); 23 in data set [2] (reference: Khan et al. (1995)); 24 in data set [2] (reference: Kim and Kim (2016)); 12 in data set [2] (reference: von Hartungen et al. (2004)). Turning to `O=C(O)C(F)(F)C(F)(F)C(F)(F)F` [perfluorobutanoic acid], the “Henry solubility constant Hcp” value in data set [2] (reference: Kwan (2001)) was determined as 0.81. In the case of `O=C(O)C(F)(F)C(F)(F)C(F)(F)C(F)(F)C(F)(F)C(F)(F)F` [perfluoroheptanoic acid], the “Henry solubility constant Hcp” value in data set [2] (reference: Kwan (2001)) turned out to be 1.7. For `O=C(O)C(F)(F)C(F)(F)C(F)(F)C(F)(F)C(F)(F)F` [perfluorohexanoic acid], in data set [2] (reference: Kwan (2001)), the “Henry solubility constant Hcp” value was found to be 1.1. Regarding `O=C(O)C(F)(F)C(F)(F)C(F)(F)C(F)(F)F` [perfluoropentanoic acid], in data set [2] (reference: Kwan (2001)), the “Henry solubility constant Hcp” value was 0.67. Same read-out and setting: the figure for `O=C(O)C(F)(F)C(F)(F)F` [perfluoropropanoic acid] is 8.8. With `CC(=O)O[O]` [peroxyacetyl radical], in data set [2] (reference: Villalta et al. (1996)), the “Henry solubility constant Hcp” value was under 0.00099. On to `C1CCNCC1` [piperidine], for which the “Henry solubility constant Hcp” value in data set [2] (reference: Bernauer and Dohnal (2009)) came to 2.8.

Regarding `COC(=O)CC(=O)OC` [propanedioic acid, dimethyl ester], in data set [2] (reference: Katrib et al. (2003)), the “Henry solubility constant Hcp” value was found to be 38. As to `C=CC=O` [propenal], the “Henry solubility constant Hcp” value in data set [2] (reference: Snider and Dawson (1985)) is 0.072.

In the case of `C=CC` [propene], the “Henry solubility constant Hcp” value in data set [2] (reference: Maaßen (1995)) and in data set [2] (reference: Reichl (1995)) was 5.4e-05 each time.

As for `CCCOC=O` [propyl methanoate], the “Henry solubility constant Hcp” value in data set [2] (setting [10]) came to 0.026. `C=COCCC` [propyl vinyl ether]: the “Henry solubility constant Hcp” value in data set [2] (reference: Hwang et al. (2010)) turned out to be 0.0031.

Regarding `CCCc1ccccc1` [propylbenzene], in data set [2] (reference: Perlinger et al. (1993)), the “Henry solubility constant Hcp” value is 0.00086. As for `C#CC` [propyne], the “Henry solubility constant Hcp” value is 0.00062 in data set [2] (reference: Inga and McKetta (1961)); 0.00077 in data set [2] (reference: Simpson and Lovell (1962)). As for `Cc1cc(C)nc(Nc2ccccc2)n1` [pyrimethanil], the “Henry solubility constant Hcp” value in data set [2] (reference: Feigenbrugel and Le Calvé (2021)) is 340. Consider `[Rn]` [radon], for which the results for the “Henry solubility constant Hcp” value in data set [2] (reference: Lewis et al. (1987)) and in data set [2] (reference: Ramstedt (1911)) were 9.4e-05 and 0.0001, respectively. In the case of `O[Si](O)(O)O` [silicic acid], the “Henry solubility constant Hcp” value in data set [2] (reference: Plyasunov (2012)) was 2.3e+10.

For `O=S(=O)(F)F` [sulfuryl fluoride], the “Henry solubility constant Hcp” value in data set [2] (reference: Cady and Misra (1974)) was 8.9e-05. As to `COc1cc(CCC(C)=O)cc(OC)c1O` [syringylacetone], the “Henry solubility constant Hcp” value in data set [2] (setting [11]) was determined as 1.2e+06. For `C[CH2][Pb]([CH2]C)([CH2]C)[CH2]C` [tetraethyl lead], the “Henry solubility constant Hcp” value in data set [2] (reference: Feldhake and Stevens (1963)) worked out at 1.3e-05.

On to `FC(F)(F)F` [tetrafluoromethane], for which the “Henry solubility constant Hcp” value in data set [2] (reference: Ashton et al. (1968)) came to 2.1e-06; in data set [2] (reference: Cosgrove and Walkley (1981)), 2.1e-06; in data set [2] (setting [12]), 2e-06; in data set [2] (reference: Park et al. (1982)), 2.1e-06; in data set [2] (reference: Reichl (1995)), 2e-06; in data set [2] (setting [5]) it was 2.1e-06. For the same compound, the “Henry solubility constant Hcp” value in data set [2] (reference: Scharlin and Battino (1995)) is 2.1e-06; in data set [2] (setting [6]), 2e-06. `C1CCOCC1` [tetrahydropyran]: in data set [2] (reference: Ondo and Dohnal (2007)), the “Henry solubility constant Hcp” value came out at 0.083. Turning to `[CH3][Sn]([CH3])([CH3])[CH3]` [tetramethylstannane], the “Henry solubility constant Hcp” value in data set [2] (reference: Abraham and Nasehzadeh (1981)) worked out at 9.4e-06. On to `c1ccsc1` [thiophene], for which the “Henry solubility constant Hcp” value in data set [2] (reference: Haimi et al. (2006)) was determined as 0.0041.

On to `CCC=CCCC=CC=O` [trans-2,cis-6-nonadienal], for which the “Henry solubility constant Hcp” value in data set [2] (reference: Ömür-Özbek and Dietrich (2005)) came out at 0.082.

On to `ClC1=C(Cl)[C@]2(Cl)[C@H]3[C@H](Cl)[C@@H](Cl)C[C@H]3[C@@]1(Cl)C2(Cl)Cl` [trans-chlordane], for which the “Henry solubility constant Hcp” value in data set [2] (setting [13]) stood at 0.034. Consider `ClC1=C(Cl)C2(Cl)C3C(Cl)C(Cl)C(Cl)C3C1(Cl)C2(Cl)Cl` (stereo not drawn) [trans-nonachlor], for which the “Henry solubility constant Hcp” value in data set [2] (setting [13]) was 0.031. Consider `O=C(O)C(Br)(Br)Br` [tribromoethanoic acid], for which the “Henry solubility constant Hcp” value in data set [2] (reference: Bowden et al. (1998a)) was 2900. In the case of `O=C(O)C(Cl)(Cl)Cl` [trichloroethanoic acid], the “Henry solubility constant Hcp” value in data set [2] (reference: Bowden et al. (1998b)) is 730. On to `CCOC(=O)C(F)(F)F` [trifluoroethanoic acid, ethyl ester], for which the “Henry solubility constant Hcp” value worked out at 0.00071 in data set [2] (reference: Kutsuna and Kaneyasu (2021)); 0.00089 in data set [2] (setting [10]). Turning to `COC(=O)C(F)(F)F` [trifluoroethanoic acid, methyl ester], in data set [2] (reference: Kutsuna et al. (2004)), the “Henry solubility constant Hcp” value was 0.0012. Consider `FC(F)F` [trifluoromethane], for which the “Henry solubility constant Hcp” value in data set [2] (reference: Maaßen (1995)) was determined as 0.00012; in data set [2] (setting [9]), 0.00021; in data set [2] (reference: Zheng et al. (1997)), 0.00013.

As for `CN(C)C` [trimethylamine], the “Henry solubility constant Hcp” value in data set [2] (setting [8]) worked out at 0.076; in data set [2] (reference: Christie and Crisp (1967)), 0.095; in data set [2] (reference: Leng et al. (2015a)), 0.084.

Consider `C[Si](C)(C)O` [trimethylsilanol], for which, in data set [2] (setting [7]), the “Henry solubility constant Hcp” value was determined as 0.07. Consider `COc1cc(CO)ccc1O` [vanillyl alcohol], for which, in data set [2] (setting [11]), the “Henry solubility constant Hcp” value was 96000. The same measure, in the same setting: the figure for `CCOCc1ccc(O)c(OC)c1` [vanillyl ethyl ether] is 410. Take `[Xe]` [xenon]: the “Henry solubility constant Hcp” value in data set [2] (reference: Crovetto et al. (1982)) stood at 4.2e-05; in data set [2] (reference: Krause and Benson (1989)), 4.3e-05; in data set [2] (setting [12]) it was 4.2e-05; in data set [2] (reference: von Antropoff (1910)), 4.4e-05. With `COc1cc(CCC(C)=O)ccc1O` [zingerone], the “Henry solubility constant Hcp” value in data set [2] (setting [11]) stood at 12000.

`ClC1C(Cl)C(Cl)C(Cl)C(Cl)C1Cl` (stereo not drawn) [α-1,2,3,4,5,6-hexachlorocyclohexane]: the “Henry solubility constant Hcp” value came out at 1.3 in data set [2] (reference: Kucklick et al. (1991)) and 1.7 in data set [2] (setting [14]). Take `C=C/C(C)=C/C/C=C(\C)CCC=C(C)C` [α-farnesene]: in data set [2] (reference: Schuhfried et al. (2015)), the “Henry solubility constant Hcp” value was 8.1e-06.

Turning to `CC1=CCC(C(C)C)C=C1` (stereo not drawn) [α-phellandrene], the “Henry solubility constant Hcp” value in data set [2] (setting [15]) came to 0.00018. Consider `ClC1C(Cl)C(Cl)C(Cl)C(Cl)C1Cl` (stereo not drawn) [β-1,2,3,4,5,6-hexachlorocyclohexane], for which the “Henry solubility constant Hcp” value in data set [2] (setting [14]) was 28.

`CC(=O)/C=C/C1=C(C)CCCC1(C)C` [β-ionone]: the “Henry solubility constant Hcp” value in data set [2] (reference: Fichan et al. (1999)) is 1.2. As for `C=C1C=CC(C(C)C)CC1` (stereo not drawn) [β-phellandrene], the “Henry solubility constant Hcp” value in data set [2] (setting [15]) was 0.00018.

These data come from Sander's compilation of Henry's law constants.
